Laboratory results published in ChEMBL document CHEMBL1201862, “PubChem BioAssay data set” (2004).
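How tested: cells in 96-well plates exposed to compound for 48 hours at five concentrations. Abbreviation: GI50, concentration required for 50% inhibition of growth.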 The source made the active and inactive calls. Rule as the data show it: active = GI50 up to about 1.1 µM and inactive = higher.

Tests used:
Test in all cases: NCI-60 cell line screen, 48 h
[1] = test system: A498
[2] = test system: A549
[3] = test system: ACHN
[4] = test system: EKVX
[5] = test system: HCT-116
[6] = test system: HCT-15
[7] = test system: IGROV-1
[8] = test system: Malme-3M
[9] = test system: NCI-H226
[10] = test system: NCI-H460
[11] = test system: OVCAR-5
[12] = test system: RXF 393
[13] = test system: SK-MEL-28
[14] = test system: SNB-19
[15] = test system: SW-620
[16] = test system: U-251
[17] = test system: UACC-62
[18] = test system: DU-145
[19] = test system: PC-3

SMILES	GI50 [1]	GI50 [2]	GI50 [3]	GI50 [4]	GI50 [5]	GI50 [6]	GI50 [7]	GI50 [8]	GI50 [9]	GI50 [10]	GI50 [11]	GI50 [12]	GI50 [13]	GI50 [14]	GI50 [15]	GI50 [16]	GI50 [17]	GI50 [18]	GI50 [19]
Oc1ccc2c(c1)OCC1(O)Cc3cc(O)c(O)cc3C21 (stereo not given)	19.1 µM (inactive)	> 57.7 µM (inactive)	18.2 µM (inactive)	27 µM (inactive)	21 µM (inactive)	20.2 µM	39.6 µM (inactive)	16.9 µM (inactive)	> 52.5 µM (inactive)	27.8 µM (inactive)	22.5 µM (inactive)	15.9 µM (inactive)	17.5 µM (inactive)	28.7 µM (inactive)	18.6 µM (inactive)	18.7 µM (inactive)	19.7 µM (inactive)		
N#Cc1c2ccc([N+](=O)[O-])cc2c(=O)n2c1sc1ccc(C(F)(F)F)cc12	> 100 µM (inactive)	> 100 µM (inactive)	> 100 µM (inactive)	> 100 µM (inactive)	> 100 µM (inactive)	> 100 µM	> 100 µM (inactive)	> 100 µM (inactive)	> 100 µM (inactive)	> 100 µM (inactive)	> 100 µM (inactive)	> 100 µM (inactive)	> 100 µM (inactive)	> 100 µM (inactive)	> 100 µM (inactive)	> 100 µM (inactive)		> 100 µM (inactive)	
CCOC(=O)NC/C=C/COC1CCCCO1 (stereo not given)	> 100 µM (inactive)	> 100 µM (inactive)	> 100 µM (inactive)		> 100 µM (inactive)	> 100 µM	> 100 µM (inactive)	> 100 µM (inactive)	> 100 µM (inactive)	> 100 µM (inactive)		> 100 µM (inactive)	> 100 µM (inactive)	> 100 µM (inactive)	> 100 µM (inactive)	> 100 µM (inactive)	> 100 µM (inactive)		
Nc1ccccc1C(=O)/C=C/c1c(O)ccc2ccccc12	> 100 µM (inactive)	> 100 µM (inactive)	> 100 µM (inactive)	> 100 µM (inactive)	> 100 µM (inactive)	> 100 µM	> 100 µM (inactive)	> 100 µM (inactive)	> 100 µM (inactive)	> 100 µM (inactive)	> 100 µM (inactive)	> 100 µM (inactive)	> 100 µM (inactive)	> 100 µM (inactive)	> 100 µM (inactive)	> 100 µM (inactive)	> 100 µM (inactive)		
CCOC(=O)C(NC(=O)c1ccccc1)(N1CCN(c2cc3c(cc2F)c(=O)c(C(=O)O)cn3C2CC2)CC1)C(F)(F)F (stereo not given)	28.1 µM (inactive)	34 µM (inactive)	23.9 µM (inactive)	24.9 µM (inactive)	17.1 µM (inactive)		30.4 µM (inactive)	20.2 µM (inactive)	21.2 µM (inactive)	21 µM (inactive)	20.4 µM (inactive)	19.5 µM (inactive)	28 µM (inactive)	29.2 µM (inactive)	21.5 µM (inactive)	29.9 µM (inactive)	22 µM (inactive)	27.5 µM (inactive)	23.6 µM (inactive)
C[N+](C)(C)CC(=O)NC(=O)N/N=C\C(CC#N)CN(Cc1ccccc1)Cc1ccccc1 (stereo not given)	> 100 µM (inactive)	> 100 µM (inactive)	> 100 µM (inactive)	> 100 µM (inactive)	> 100 µM (inactive)	> 100 µM	> 100 µM (inactive)	58.2 µM (inactive)	37.5 µM (inactive)	> 100 µM (inactive)	> 100 µM (inactive)	> 100 µM (inactive)	> 100 µM (inactive)	> 100 µM (inactive)	> 100 µM (inactive)	> 100 µM (inactive)	> 100 µM (inactive)		
COc1ccc(C(=C(C#N)C#N)c2ccc(OC)cc2)cc1	> 100 µM (inactive)	> 100 µM (inactive)	> 100 µM (inactive)	> 100 µM (inactive)	> 100 µM (inactive)	> 100 µM	> 100 µM (inactive)		> 100 µM (inactive)	> 100 µM (inactive)	> 100 µM (inactive)	> 100 µM (inactive)	> 100 µM (inactive)	> 100 µM (inactive)	> 100 µM (inactive)	> 100 µM (inactive)	> 100 µM (inactive)		
N#Cc1c2c(c(Nc3cccc(C(F)(F)F)c3)n3c1nc1ccccc13)CCCC2	26.8 µM (inactive)		27.3 µM (inactive)	20.8 µM (inactive)	22.3 µM (inactive)	39.2 µM		21.3 µM (inactive)	26.5 µM (inactive)	23.1 µM (inactive)	18.9 µM (inactive)	22.7 µM (inactive)	18.2 µM (inactive)		39.1 µM (inactive)	11.5 µM (inactive)		21.3 µM (inactive)	
COC(=O)C1C=CCON2CCc3c(n(S(=O)(=O)c4ccccc4)c4ccccc34)C12 (stereo not given)	> 100 µM (inactive)	50.1 µM (inactive)	65.3 µM (inactive)	41.5 µM (inactive)	39.3 µM (inactive)	50.8 µM	> 55.3 µM (inactive)	> 64.7 µM (inactive)	> 46.2 µM (inactive)	52.6 µM (inactive)	> 100 µM (inactive)	> 67.5 µM (inactive)	> 100 µM (inactive)	> 46.6 µM (inactive)	14.8 µM (inactive)	25.2 µM (inactive)	> 49.4 µM (inactive)		
CN(C)CCNC(=O)c1cc2ccccc2c2nc3ccccc3nc12	1.14 µM (inactive)	0.977 µM (active)	0.407 µM (active)	2.06 µM (inactive)	0.373 µM (active)	0.522 µM	1.45 µM (inactive)	0.818 µM (active)	0.841 µM (active)		1.94 µM (inactive)	1.02 µM (active)	1.56 µM (inactive)	1.43 µM (inactive)	0.484 µM (active)	0.986 µM (active)	2 µM (inactive)		
COc1cc2c(c(O)c1O)-c1ccc(OC)c(=O)cc1C(NC(C)=O)CC2 (stereo not given)	34.1 µM (inactive)	36.4 µM (inactive)	74.6 µM (inactive)	39 µM (inactive)	5.57 µM (inactive)	> 95.1 µM	32.1 µM (inactive)	16.5 µM (inactive)	43.2 µM (inactive)	25.2 µM (inactive)	76.6 µM (inactive)	14.6 µM (inactive)	24.8 µM (inactive)	5.07 µM (inactive)	5.27 µM (inactive)	4.88 µM (inactive)	6.98 µM (inactive)		
CCCC(=O)Oc1ccc(/C=N/NC(N)=S)nc1	> 100 µM (inactive)	> 100 µM (inactive)	35.6 µM (inactive)	> 100 µM (inactive)	> 100 µM (inactive)	> 100 µM	> 100 µM (inactive)	> 100 µM (inactive)	> 100 µM (inactive)	> 100 µM (inactive)	> 100 µM (inactive)	> 100 µM (inactive)	> 100 µM (inactive)	> 100 µM (inactive)	> 100 µM (inactive)	> 100 µM (inactive)	64.1 µM (inactive)		
CCOC(=O)C12CCCC1(O)N(NC(N)=O)C(C)=C2C(=O)OC (stereo not given)	> 100 µM (inactive)	> 100 µM (inactive)	> 100 µM (inactive)	> 100 µM (inactive)	> 100 µM (inactive)	> 100 µM	> 100 µM (inactive)	> 100 µM (inactive)	> 100 µM (inactive)	> 100 µM (inactive)	> 100 µM (inactive)		> 100 µM (inactive)	> 100 µM (inactive)	> 100 µM (inactive)	> 100 µM (inactive)	> 100 µM (inactive)		
COC1=CC(=O)C2(C=C1OC)OC[C@H]1Oc3c(ccc4c3C=CC(C)(C)O4)C(=O)[C@H]12 (stereo not given in full)	63.7 µM (inactive)	42.5 µM (inactive)	44.8 µM (inactive)	27.4 µM (inactive)	28.4 µM (inactive)		40.3 µM (inactive)	57 µM (inactive)		49.2 µM (inactive)	> 100 µM (inactive)	30.2 µM (inactive)	41.2 µM (inactive)	47 µM (inactive)	35 µM (inactive)	56.2 µM (inactive)	47.1 µM (inactive)		
CCn1c(C)nc([N+](=O)[O-])c1Sc1ncc[nH]1	> 100 µM (inactive)	> 100 µM (inactive)	48.1 µM (inactive)	75.7 µM (inactive)	43.2 µM (inactive)		71 µM (inactive)	20.1 µM (inactive)	> 100 µM (inactive)	66.2 µM (inactive)	> 100 µM (inactive)		31 µM (inactive)	> 100 µM (inactive)	48.2 µM (inactive)	44 µM (inactive)	28.5 µM (inactive)		
COC(=O)c1cc2c(=O)n(C)c3ccccc3n2c1C(=O)OC	27.2 µM (inactive)	66.4 µM (inactive)	83.2 µM (inactive)	26.9 µM (inactive)		80.2 µM	56.6 µM (inactive)	> 100 µM (inactive)	30.3 µM (inactive)	> 100 µM (inactive)	> 100 µM (inactive)	36.2 µM (inactive)	70.5 µM (inactive)	34.7 µM (inactive)	64.9 µM (inactive)	24.1 µM (inactive)	> 100 µM (inactive)		
CN(C)/N=N/c1ccccc1	> 100 µM (inactive)	68.5 µM (inactive)	25.9 µM (inactive)	> 100 µM (inactive)	> 100 µM (inactive)	16.7 µM	34.3 µM (inactive)	> 100 µM (inactive)	> 100 µM (inactive)	98.9 µM (inactive)		> 100 µM (inactive)	> 100 µM (inactive)	> 100 µM (inactive)	> 100 µM (inactive)	> 100 µM (inactive)			
